# Laboratory results published in US11066443B2 (Hoffmann-La Roche Inc., priority 2017, dated 2021).
# System: P. aeruginosa ATCC27853
# Test: Antimicrobial susceptibility testing: microbroth minimum inhibitory concentration (MIC) determination
# Format: cell-based
# Settings: Pseudomonas aeruginosa, CLSI microbroth dilution in CAMHB, read after 20 hours, lowest concentration inhibiting >=80% of growth
# Procedure: The in vitro antimicrobial activity of the compounds was determined through microbroth minimum inhibitory concentration (MIC) methodology performed according to the Clinical and Laboratory Standard Institute guidelines (CLSI—M07-A9 Jan. 2012. Methods for Dilution Antimicrobial Susceptibility Tests for Bacteria That Grow Aerobically; Approved Standard—Ninth Edition, Clinical and Laboratory Standards Institue, Wayne/PA, US and the CLSI—M100-S24 Jan. 2014. Performance Standards for Antimicrobial Susceptibility Testing; Approved Standard—Fourth Informational Supplement, Clinical and Laboratory Standards Institue, Wayne/PA, US).
# The compound stock solution was freshly prepared at 10× the required top concentration for the MIC determination, i.e. at 1280 mg/L, by reconstitution of the dry compound in 50:50 water:DMSO.
# Polystyrene non-treated 96 wells microtiter plates were used for preparing panel containing compound serial twofold diluted at two times the final testing concentration (e.g. range from 64 to 0.06 μg/ml) in cation adjusted Mueller Hinton broth medium (CAMHB).
# Inoculum was prepared by the “direct colony suspension method”. Colonies of P. aeruginosa ATCC27853 or clinical isolates were suspended in saline solution and adjusted to 0.5 McFarland, diluted 100 times in CAMHB broth and 50 μl added to each well (final concentration of cells ˜5×10^(5) CFU/ml and Final volume/well of 100 μl). Microtiter plates were sealed and incubated at 35±2° C.
# MICs values were read after 20 hours of incubation and recorded as the lowest concentration of the antimicrobial that inhibits more or equal to 80% of growth of the organism as detected by the unaided eye and using a microtiter plate optical density reader (OD 600 nm).
# Table 1 provides the minimum inhibitory concentration (MIC) in microgram per milliliter of the compounds of present invention obtained against the P. aeruginosa ATCC27853 (Table 1).
row,SMILES,MIC
1,"Cc1[nH]c2ccccc2c1C[C@H]1C(=O)NCc2cc(Cl)cc(Cl)c2Sc2ccccc2CN[C@@H](CCCN)C(=O)N[C@@H](CCCCN)C(=O)N1C [Example 17, (12S,15S,18S)-15-(4-Amino-butyl)-18-(3-amino-propyl)-4,6-dichloro-13-methyl-12-(2-methyl-1H-indol-3-ylmethyl)-2-thia-10,13,16,19-tetraaza-tricyclo[19.4.0.0*3,8*]pentacosa-1(21),3,5,7,22,24-hexaene-1,14,17-trione]",32 mg/L
2,"CN1C(=O)[C@H](CCCCN)NC(=O)[C@H](CCCN)NCc2ccccc2Sc2ccc(-c3ccccc3)cc2CNC(=O)[C@@H]1Cc1c[nH]c2ccccc12 [Example 19, (12S,15S,18S)-15-(4-Amino-butyl)-18-(3-amino-propyl)-12-(1H-indol-3-ylmethyl)-13-methyl-6-phenyl-2-thia-10,13,16,19-tetraaza-tricyclo[19.4.0.0*3,8*]pentacosa-1(25),3,5,7,21,23-hexaene-11,14,17-trione]",32 mg/L
3,"CCc1ccc2c(c1)CNC(=O)[C@H](Cc1c[nH]c3ccccc13)N(C)C(=O)[C@H](CCCCN)NC(=O)[C@H](CCCN)NCc1ccccc1S2 [Example 18, (12S,15S,18S)-15-(4-Amino-butyl)-18-(3-amino-propyl)-6-ethyl-12-(1H-indol-3-ylmethyl)-13-methyl-2-thia-10,13,16,19-tetraaza-tricyclo[19.4.0.0*3,8*]pentacosa-1(25),3,5,7,21,23-hexaene-11,14,17-trione]",32 mg/L
4,"CN1C(=O)[C@H](CCCCN)NC(=O)[C@H](CCCN)NCc2ccccc2Sc2ccc(C(C)(C)C)cc2CNC(=O)[C@@H]1Cc1c[nH]c2ccccc12 [Example 20, (12S,15S,18S)-15-(4-Amino-butyl)-18-(3-amino-propyl)-6-tert-butyl-12-(1H-indol-3-ylmethyl)-13-methyl-2-thia-10,13,16,19-tetraaza-tricyclo[19.4.0.0*3,8*]pentacosa-1(25),3,5,7,21,23-hexaene-11,14,17-trione]",32 mg/L
5,"CN1C(=O)[C@H](CCCCN)NC(=O)[C@H](CCCN)NCc2ccccc2Sc2c(Cl)cccc2CNC(=O)[C@@H]1Cc1c[nH]c2ccccc12 [Example 3, (12S,15S,18S)-15-(4-Amino-butyl)-18-(3-amino-propyl)-4-chloro-12-(1H-indol-3-ylmethyl)-13-methyl-2-thia-10,13,16,19-tetraaza-tricyclo[19.4.0.0*3,8*]pentacosa-1(21),3,5,7,22,24-hexaene-11,14,17-trione]",> 64 mg/L
6,"CN1C(=O)[C@H](CCCCN)NC(=O)[C@H](CCCN)NCc2cccnc2Sc2c(Cl)ccc(-c3ccccc3)c2CNC(=O)[C@@H]1Cc1c[nH]c2ccccc12 [Example 29, (11S,14S,17S)-14-(4-Amino-butyl)-11-(3-amino-propyl)-25-chloro-17-(1H-indol-3-ylmethyl)-16-methyl-22-phenyl-2-thia-4,10,13,16,19-pentaaza-tricyclo[19.4.0.0*3,8*]pentacosa-1(25),3(8),4,6,21,23-hexaene-12,15,18-trione]",32 mg/L
7,"CC(C)c1ccc2c(c1)CNC(=O)[C@H](Cc1c[nH]c3ccccc13)N(C)C(=O)[C@H](CCCCN)NC(=O)[C@H](CCCN)NCc1ccccc1S2 [Example 21, (12S,15S,18S)-15-(4-Amino-butyl)-18-(3-amino-propyl)-12-(1H-indol-3-ylmethyl)-6-isopropyl-13-methyl-2-thia-10,13,16,19-tetraaza-tricyclo[19.4.0.0*3,8*]pentacosa-1(25),3,5,7,21,23-hexaene-11,14,17-trione]",32 mg/L

# System: P. aeruginosa NCTC11454
# Test: Antimicrobial susceptibility testing: 50% growth inhibitory concentration (IC50) determination
# Format: cell-based
# Settings: Pseudomonas aeruginosa, Iso-Sensitest broth, OD 600 nm every 20 minutes over 16h, growth inhibition during logarithmic growth
# Procedure: The in vitro antimicrobial activity of the compounds was alternatively determined according to the following procedure: The assay used a 10-points Iso-Sensitest broth medium to measure quantitatively the in vitro activity of the compounds against P. aeruginosa NCTC11454. Stock compounds in DMSO were serially twofold diluted (e.g. range from 50 to 0.097 μM final concentration) in 384 wells microtiter plates and inoculated with 49 μl the bacterial suspension in Iso-Sensitest medium to have a final cell concentration of ˜5×10^(5) CFU/ml in a final volume/well of 50 ul/well. Microtiter plates were incubated at 35±2° C. Bacterial cell growth was determined with the measurement of optical density at λ=600 nm each 20 minutes over a time course of 16h. Growth inhibition was calculated during the logarithmic growth of the bacterial cells with determination of the concentration inhibiting 50% (IC50) and 90% (IC90) of the growth. Table 2 provides the 50% growth inhibitory concentrations (IC50) in micromoles per liter of the compounds of present invention obtained against P. aeruginosa NCTC11454.
row,SMILES,IC50
1,"CN1C(=O)[C@H](CCCCN)NC(=O)[C@H](CCCN)NCc2cc(-c3ccccc3)ccc2Sc2c(Cl)cccc2CNC(=O)[C@@H]1Cc1c[nH]c2ccccc12 [Example 49, (12S,15S,18S)-15-(4-Amino-butyl)-18-(3-amino-propyl)-4-chloro-12-(1H-indol-3-ylmethyl)-13-methyl-23-phenyl-2-thia-10,13,16,19-tetraaza-tricyclo[19.4.0.0*3,8*]pentacosa-1(25),3,5,7,21,23-hexaene-11,14,17-trione]",10.8 µM
2,"CN1C(=O)[C@H](CCCCN)NC(=O)[C@H](CCCN)NCc2ccccc2Sc2c(ccc(Br)c2Cl)CNC(=O)[C@@H]1Cc1c[nH]c2ccccc12 [Example 41, (12S,15S,18S)-15-(4-Amino-butyl)-18-(3-amino-propyl)-5-bromo-4-chloro-12-(1H-indol-3-ylmethyl)-13-methyl-2-thia-10,13,16,19-tetraaza-tricyclo[19.4.0.0*3,8*]pentacosa-1(25),3,5,7,21,23-hexaene-11,14,17-trione]",6.5 µM
3,"CN1C(=O)[C@H](CCCCN)NC(=O)[C@H](CCCN)NCc2cccnc2Sc2c(Cl)cc(-c3ccccc3)cc2CNC(=O)[C@@H]1Cc1c[nH]c2ccccc12 [Example 35, 11-(3-amino-propyl)-25-chloro-17-(1H-indol-3-ylmethyl)-16-methyl-23-phenyl-2-thia-4,10,13,16,19-pentaaza-tricyclo[9.4.0.0*3,8*]pentacsa-(25),3(8),4,6,21,23-hexaene-12,15,18-trione]",8.1 µM
4,"CN1C(=O)[C@H](CCCCN)NC(=O)[C@H](CCCN)NCc2cc(Br)ccc2Sc2c(Cl)cccc2CNC(=O)[C@@H]1Cc1c[nH]c2ccccc12 [Example 48, (12S,15S,18S)-15-(4-Amino-butyl)-18-(3-amino-propyl)-23-bromo-4-chloro-12-(1H-indol-3-ylmethyl)-13-methyl-2-thia-10,13,16,19-tetraaza-tricyclo[19.4.0.0*3,8*]pentacosa-1(25),3,5,7,21,23-hexaene-11,14,17-trione]",14.2 µM
5,"CN1C(=O)[C@H](CCCCN)NC(=O)[C@H](CCCN)NCc2cccnc2Sc2c(cc(-c3ccccc3)cc2C(F)(F)F)CNC(=O)[C@@H]1Cc1c[nH]c2ccccc12 [Example 22, (11S,14S,17S)-14-(4-Amino-butyl)-11-(3-amino-propyl)-17-(1H-indol-3-ylmethyl)-16-methyl-23-phenyl-25-trifluoromethyl-2-thia-4,10,13,16,19-pentaaza-tricyclo[19.4.0.0*3,8*]pentacosa-1(25),3,5,7,21,23-hexaene-12,15,18-trione]",10.1 µM
6,"CN1C(=O)[C@H](CCCCN)NC(=O)[C@@H](CCCN)NCc2cccnc2Sc2c(ccc(-c3ccccc3)c2Cl)CNC(=O)[C@@H]1Cc1c[nH]c2ccccc12 [Example 27, (11R,14S,17S)-14-(4-Amino-butyl)-11-(3-amino-propyl)-25-chloro-17-(1H-indol-3-ylmethyl)-16-methyl-24-phenyl-2-thia-4,10,13,16,19-pentaaza-tricyclo[19.4.0.0*3,8*]pentacosa-1(25),3,5,7,21,23-hexaene-12,15,18-trione]",11.3 µM
7,"CN1C(=O)[C@H](CCCCN)NC(=O)[C@H](CCCN)NCc2ccc(Br)cc2Sc2c(Cl)cccc2CNC(=O)[C@@H]1Cc1c[nH]c2ccccc12 [Example 51, (12S,15S,18S)-15-(4-Amino-butyl)-18-(3-amino-propyl)-24-bromo-4-chloro-12-(1H-indol-3-ylmethyl)-13-methyl-2-thia-10,13,16,19-tetraaza-tricyclo[19.4.0.0*3,8*]pentacosa-1(25),3,5,7,21,23-hexaene-11,14,17-trione]",12.3 µM
8,"Cc1cc(Cl)cc2c1Sc1ccccc1CN[C@@H](CCCN)C(=O)N[C@@H](CCCCN)C(=O)N(C)[C@@H](Cc1c[nH]c3ccccc13)C(=O)NC2 [Example 14, (12S,15S,18S)-15-(4-Amino-butyl)-18-(3-amino-propyl)-6-chloro-12-(1H-indol-3-ylmethyl)-4,13-dimethyl-2-thia-10,13,16,19-tetraaza-tricyclo[19.4.0.0*3,8*]pentacosa-1(25),3,5,7,21,23-hexaene-11,14,17-trione]",24.3 µM
9,"CN1C(=O)[C@H](CCCCN)NC(=O)[C@H](CCCN)NCc2ccccc2Sc2ccc(Cl)cc2CNC(=O)[C@@H]1Cc1c[nH]c2cc(Cl)ccc12 [Example 7, (12S,15S,18S)-15-(4-Amino-butyl)-18-(3-amino-propyl)-6-chloro-12-(6-chloro-1H-indol-3-ylmethyl)-13-methyl-2-thia-10,13,16,19-tetraaza-tricyclo[19.4.0.0*3,8*]pentacosa-1(21),3,5,7,22,24-hexaene-11,14,17-trione]",7.62 µM
